Structures are written as SMILES.

The target of the assay is STING (Homo sapiens, UniProt Q86WV6). Nature of the assay: STING antagonist activity, cell-based ISG54 promoter-reporter luciferase measurement of IRF activity (THP-1 dual / RAW-ISG cells). Conditions: Antagonist Activity of Exemplary Compounds; cell line and agonist not given; read-out: IC50. The procedure: THP-1 dual cells (InvivoGen) were cultured under 5% CO2 at 37° C. in RPMI containing 10% fetal bovine serum (FBS), 100 IU mL-1 penicillin and 100 μg mL-1 streptomycin. RAW-ISG cells (InvivoGen) were cultured under 5% CO2 at 37° C. in DMEM containing 10% fetal bovine serum (FBS), 100 IU mL-1 penicillin and 100 μg mL-1 streptomycin. THP-1 dual cells were seeded into the 96 well assay plate on the day of assay whereas RAW cells were seeded into the 96 well assay plate 18 hours before the assay.
STING, sequence (Q86WV6 whole entry): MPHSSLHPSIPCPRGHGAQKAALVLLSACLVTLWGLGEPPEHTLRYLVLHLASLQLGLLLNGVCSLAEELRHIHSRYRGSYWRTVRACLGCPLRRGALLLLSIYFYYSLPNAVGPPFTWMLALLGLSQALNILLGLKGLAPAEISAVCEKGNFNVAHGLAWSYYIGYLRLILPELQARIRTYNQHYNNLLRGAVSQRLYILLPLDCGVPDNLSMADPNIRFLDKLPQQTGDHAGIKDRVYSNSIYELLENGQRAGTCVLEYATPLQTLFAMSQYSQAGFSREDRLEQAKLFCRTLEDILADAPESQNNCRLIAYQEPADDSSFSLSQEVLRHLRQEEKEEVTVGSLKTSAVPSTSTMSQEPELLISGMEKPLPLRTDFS
50,000 cells seeded in a 96-well flat bottom white assay plate were treated with different concentrations (10 uM to 0.01 uM) of compounds for 1 h followed by STING induction with either 30 nM SB 11285 or 10 ug/mL 2′-3′ cGAMP. The cells were then incubated for 20 hours @ 37° C. in CO2 incubator before measuring IRF activation by using Quanti-Luc (InvivoGen). The % inhibition was calculated as 100−{[(luminescence of COI treated well/luminescence of non-COI treated well)/100]×100}. IC50 was calculated by plotting in Xlfit.
50,000 cells seeded in a 96-well flat bottom white assay plate were treated with different concentrations (10 uM to 0.01 uM) of compounds for 1 h followed by STING induction with either 1 μM SB 11285 or 10 ug/mL 2′-3′ cGAMP. The cells were then incubated for 20 hours @ 37° C. in CO2 incubator before measuring IRF activation by using Quanti-Luc (InvivoGen). The % inhibition was calculated as 100−{[(luminescence of COI treated well/luminescence of non-COI treated well)/100]×100}. IC50 was calculated by plotting in Xlfit.
THP1-Dual-WT cells (InvivoGen) were plated into 96-well flat bottom plate at 5×10^4 cells/140 μL/well in triplicate. Cells were then treated with diluted antagonist compounds at 10 μL/well for 1 h, followed by treatment with compounds or 2′3′-cGAMP/lipo mixture for 18 h. The levels of IRF activity were determined using Quanti-luc (InvivoGen) and calculated against IRF activity in DMSO-treated cells. IC50 and CC50 values were calculated using Xlfit.
A word on the IC50: it is the point on the concentration scale where inhibition reaches its midpoint. In the case of `Cc1nc2nc(Cl)nc([S+]([O-])C(C)C)c2n1CCCCCCCCCCN1CCOCC1` (centres unmarked) [Compound 136, 4-(10-(2-chloro-6-(isopropylsulfinyl)-8-methyl-7H-purin-7-yl)decyl)morpholine], the IC50 was in the range of 1 to 1000 nM. Turning to `CCCCCCCCCCCCCCCCn1c(C)nc2nc(Cl)nc(S(=O)(=O)C(C)C)c21` [Compound 97, 2-chloro-7-hexadecyl-6-(isopropylsulfonyl)-8-methyl-7H-purine], the IC50 was in the range of 1 to 1000 nM. The result for `Cc1nc2nc(Cl)nc(S(=O)(=O)C(C)C)c2n1CCCCCCCCCCCCCCCc1nnnn1C` [Compound 140, 2-chloro-6-(isopropylsulfonyl)-8-methyl-7-(15-(1-methyl-1H-tetrazol-5-yl)pentadecyl)-7H-purine] reads 1 to 1000 nM; that for `COC(=O)CCCCCCCCCCCCCCCn1cnc2nc(Cl)ncc21` [Compound 2], 10000 to 20000 nM; that for `Cc1nc2nc(Cl)nc(Cl)c2n1CCCCCCO` [Compound 62, 6-(2,6-dichloro-8-methyl-7H-purin-7-yl)hexan-1-ol], 1000 to 5000 nM.

`Cc1nc2nc(Cl)nc([S+]([O-])C(C)C)c2n1CCCCCCCCCC[N+]1([O-])CCOCC1` (centres unmarked) [Compound 127, 4-(10-(2-chloro-6-(isopropylsulfinyl)-8-methyl-7H-purin-7-yl)decyl)morpholine 4-oxide]: the IC50 is over 20000 nM. The result for `COC(=O)CCCCCCCCCCCCCCCn1c(C)nc2nc(Cl)nc(S(=O)(=O)C(C)C)c21` [Compound 74, methyl 16-(2-chloro-6-(isopropylsulfonyl)-8-methyl-7H-purin-7-yl)hexadecanoate] reads 1 to 1000 nM.

With `Cc1nc2nc(Cl)nc(S(=O)(=O)CCO)c2n1CCCCCCCCCCCCCCCC(=O)OC(C)C` [Compound 146, isopropyl 16-(2-chloro-6-((2-hydroxyethyl)sulfonyl)-8-methyl-7H-purin-7-yl)hexadecanoate], the IC50 lay in the range of 1 to 1000 nM. The result for `COC(=O)CCCCCCCCCCCCCCCn1c(O)nc2c(Cl)nc(Cl)nc21` [Compound 53, methyl 16-(2,6-dichloro-8-oxo-7,8-dihydro-9H-purin-9-yl)hexadecanoate] reads over 20000 nM; that for `Cc1nc2nc(Cl)nc(S(=O)(=O)C(C)C)c2n1CCCCCCCCCCCCCCCC(=O)OCC(C)C` [Compound 159, Isobutyl 16-(2-chloro-6-(isopropylsulfonyl)-8-methyl-7H-purin-7-yl)hexadecanoate], 1000 to 5000 nM; that for `COC(=O)CCCCCCCCCCCCCCCn1c(CCl)nc2nc(Cl)nc(Cl)c21` [Compound 91, Methyl 16-(2,6-dichloro-8-(chloromethyl)-7H-purin-7-yl)hexadecanoate], 1 to 1000 nM.

With `OCCOCCOCCOCCn1cnc2nc(Cl)nc(Cl)c21` [Compound 48, 2-(2-(2-(2-(2,6-dichloro-7H-purin-7-yl)ethoxy)ethoxy)ethoxy)ethan-1-ol], the 50% inhibitory concentration (IC50) lay within 1000 to 5000 nM.

Regarding `COC(=O)CCCCn1c(C)nc2nc(Cl)nc(Cl)c21` [Compound 60, methyl 5-(2,6-dichloro-8-methyl-7H-purin-7-yl)pentanoate], the half-inhibitory concentration (IC50) is 5000 to 10000 nM. As for `CCCCCCCCC(C(=O)O)n1cnc2c(Cl)nc(Cl)nc21` (centres unmarked) [Compound 19, 2-(2,6-dichloro-9H-purin-9-yl)decanoic acid], the figure is 5000 to 10000 nM; as for `Cc1nc2nc(Cl)nc(S(=O)(=O)C(C)C)c2n1CCCCCCCCCCCCCCCCO` [Compound 111, 16-(2-chloro-6-(isopropylsulfonyl)-8-methyl-7H-purin-7-yl)hexadecan-1-ol], 1 to 1000 nM; as for `Clc1nc(Cl)c2c(ncn2C/C=C\Cn2cnc3nc(Cl)nc(Cl)c32)n1` [Compound 58, (Z)-1,4-bis(2,6-dichloro-7H-purin-7-yl)but-2-ene], over 20000 nM. As for `COC(=O)CCCCCCCCCCCCCCCn1cnc2nc(NC(C)=O)nc(Cl)c21` [Compound 46, methyl 16-(2-acetamido-6-chloro-7H-purin-7-yl) hexadecanoate], the figure is over 20000 nM; as for `Cc1nc2nc(Cl)nc(Cl)c2n1CCCCCCCCCCCCCCCCN` [Compound 163, 16-(2,6-dichloro-8-methyl-7H-purin-7-yl)hexadecan-1-amine], 1 to 1000 nM. Take `COC(=O)CCCCCCCCCCCCCCCn1cnc2ncncc21` [Compound 3]: the IC50 was over 20000 nM. The result for `COC(=O)CCCCCCCCCn1c(C)nc2nc(Cl)nc([S+]([O-])C(C)C)c21` (centres unmarked) [Compound 124, methyl 10-(2-chloro-6-(isopropylsulfinyl)-8-methyl-7H-purin-7-yl)decanoate] reads 1 to 1000 nM; that for `Cc1nc2nc(Cl)nc(Cl)c2n1CCCCCCCCCCCCCCCC(=O)OC[C@@H](O)CO` [Compound 107, (S)-2,3-dihydroxypropyl 16-(2,6-dichloro-8-methyl-7H-purin-7-yl)hexadecanoate], 1000 to 5000 nM. As for `CCOC(=O)CCCCCCCCCCCCCCCn1c(C)nc2nc(Cl)nc(Cl)c21` [Compound 78, ethyl 16-(2,6-dichloro-8-methyl-7H-purin-7-yl)hexadecanoate], the figure is 1 to 1000 nM. As for `Cc1nc2nc(Cl)nc(Cl)c2n1CCCCCCCCCCCCCCCC(=O)O` [Compound 72, 16-(2,6-dichloro-8-methyl-7H-purin-7-yl)hexadecanoic acid], the figure is 10000 to 20000 nM; as for `Cc1nc2nc(Cl)nc(Cl)c2n1CCCCCCCCCCCCCCCC(=O)OCC(C)O` (centres unmarked) [Compound 98, 2-hydroxypropyl 16-(2,6-dichloro-8-methyl-7H-purin-7-yl)hexadecanoate], 1000 to 5000 nM; as for `Cc1nc2nc(Cl)nc(Cl)c2n1CCCCCCCCCCCCCCCC#N` [Compound 157, 16-(2,6-dichloro-8-methyl-7H-purin-7-yl)hexadecanenitrile], 1 to 1000 nM. For the compound `Cc1nc2c(Cl)nc(Cl)nc2n1C` [Compound 83, 2,6-dichloro-8,9-dimethyl-9H-purine], the 50% inhibitory concentration (IC50) was over 20000 nM.

On to `CC1Nc2nc(Cl)nc(S(=O)(=O)C(C)C)c2N1CCCCCCCCCCCCCCCCO` (centres unmarked) [Compound 112, 16-(2-chloro-6-(isopropylsulfonyl)-8-methyl-8,9-dihydro-7H-purin-7-yl)hexadecan-1-ol], for which the IC50 was in the range of 1000 to 5000 nM.

Take `COC(=O)CCCCCCCCCCCCCCCn1cnc2nc(Cl)nc(O)c21` [Compound 11, methyl 16-(2-chloro-6-hydroxy-7H-purin-7-yl)hexadecanoate]: the IC50 lay within 10000 to 20000 nM. As for `Cc1nc2nc(Cl)nc(S(=O)(=O)C(C)C)c2n1CCCCCCCCCCCCCCCC(=O)N1CCOCC1` [Compound 145, 16-(2-chloro-6-(isopropylsulfonyl)-8-methyl-7H-purin-7-yl)-1-morpholinohexadecan-1-one], the figure is 1 to 1000 nM; as for `Cc1nc2nc(Cl)nc(S(=O)(=O)C(C)C)c2n1CCCCCCCCCCCCCCCCN1CCOCC1` [Compound 142], 1 to 1000 nM. The result for `CNC(=O)CCCCCCCCCCCCCCCn1c(C)nc2nc(Cl)nc(Cl)c21` [Compound 94, 16-(2,6-dichloro-8-methyl-7H-purin-7yl)-N-methylhexadecanamide] reads 1 to 1000 nM. The result for `COC(=O)CCCCCCCCCCCCCCCn1c(C(C)C)nc2nc(Cl)nc(Cl)c21` [Compound 89, methyl 16-(2,6-dichloro-8-isopropyl-7H-purin-7-yl)hexadecanoate] reads 1 to 1000 nM. On to `Clc1nc(Cl)c2c(ncn2C/C=C/Cn2cnc3nc(Cl)nc(Cl)c32)n1` [Compound 54, (E)-1,4-bis(2,6-dichloro-7H-purin-7-yl)but-2-ene], for which the IC50 is 1000 to 5000 nM. As for `Cc1nc2nc(Cl)nc(Cl)c2n1CCCCCCCCCCN1CCN(C)CC1` [Compound 113, 2,6-dichloro-8-methyl-7-(10-(4-methylpiperazin-1-yl)decyl)-7H-purine], the figure is 1000 to 5000 nM; as for `COC(=O)CCCN1CCN(CCCCCCn2c(C)nc3nc(Cl)nc(Cl)c32)CC1` [Compound 153, Methyl 4-(4-(6-(2,6-dichloro-8-methyl-7H-purin-7-yl)hexyl)piperazin-1-yl)butanoate], 1000 to 5000 nM.

With `Clc1nc(Cl)c2c(ncn2CCCCn2cnc3nc(Cl)nc(Cl)c32)n1` [Compound 55, 1,4-bis(2,6-dichloro-7H-purin-7-yl)butane], the IC50 lay in the range of 5000 to 10000 nM.

As to `COc1ccc(Cn2cnc3c(NCCCCCC(=O)O)nc(Cl)nc32)cc1` [Compound 22, 6-((2-chloro-9-(4-methoxybenzyl)-9H-purin-6-yl)amino)hexanoic acid], the 50% inhibitory concentration (IC50) was over 20000 nM. As for `COC(=O)CCCCCCCCCCCCCCCn1c(CO)nc2nc(Cl)nc(Cl)c21` [Compound 93, Methyl 16-(2,6-dichloro-8-(hydroxymethyl)-7H-purin-7-yl)hexadecanoate], the figure is 1 to 1000 nM.

For the origin of these results see patent publication US20220168309A1 (F-STAR THERAPEUTICS, INC., priority 2019, published 2022).
